Results: ChEMBL document CHEMBL1153550, “In vitro study of Candida tropicalis isolates exhibiting paradoxical growth in the presence of high concentrations of caspofungin” (2007)
Converted amounts (≈) assume the structure as drawn. The source made the active and inactive calls. No cut-off for these calls is given here.

Assays:
Candida tropicalis [1] = test: Antifungal activity against > 2 x 10^7 CFU/ml Candida tropicalis isolate 15 in RPMI 1640 medium assessed as partial growth after 24 hrs by broth microdilution method; type: functional, organism-based
Candida tropicalis [2] = test: Antifungal activity against > 2 x 10^7 CFU/ml Candida tropicalis isolate 11 in RPMI 1640 medium assessed as partial growth after 24 hrs by broth microdilution method; type: functional, organism-based
Candida tropicalis [3] = test: Antifungal activity against 2 x 10^7 CFU/ml Candida tropicalis ATCC 750 in antibiotic medium 3 after 24 hrs by broth microdilution method; type: functional; settings: ATCC 750, 24 h
Candida tropicalis [4] = test: Antifungal activity against 2 x 10^7 CFU/ml Candida tropicalis isolate 14 in antibiotic medium 3 after 24 hrs by broth microdilution method; type: functional; settings: isolate 14, 24 h
Candida tropicalis [5] = test: Antifungal activity against 2 x 10^7 CFU/ml Candida tropicalis isolate 9 in antibiotic medium 3 after 24 hrs by broth microdilution method; type: functional; settings: isolate 9, 24 h
Candida tropicalis [6] = test: Antifungal activity against 2 x 10^7 CFU/ml Candida tropicalis isolate 5 in antibiotic medium 3 after 24 hrs by broth microdilution method; type: functional; settings: isolate 5, 24 h
Candida tropicalis [7] = test: Antifungal activity against 2 x 10^7 CFU/ml Candida tropicalis isolate 2 in antibiotic medium 3 after 24 hrs by broth microdilution method; type: functional; settings: isolate 2, 24 h
Candida tropicalis [8] = test: Antifungal activity against 2 x 10^7 CFU/ml Candida tropicalis isolate 13 in RPMI 1640 medium after 24 hrs by broth microdilution method; type: functional; settings: isolate 13, 24 h
Candida tropicalis [9] = test: Antifungal activity against 2 x 10^7 CFU/ml Candida tropicalis isolate 10 in RPMI 1640 medium after 24 hrs by broth microdilution method; type: functional; settings: isolate 10, 24 h
Candida tropicalis [10] = test: Antifungal activity against 2 x 10^7 CFU/ml Candida tropicalis isolate 8 in RPMI 1640 medium after 24 hrs by broth microdilution method; type: functional; settings: isolate 8, 24 h
Candida tropicalis [11] = test: Antifungal activity against 2 x 10^7 CFU/ml Candida tropicalis isolate 7 in RPMI 1640 medium after 24 hrs by broth microdilution method; type: functional; settings: isolate 7, 24 h
Candida tropicalis [12] = test: Antifungal activity against 2 x 10^7 CFU/ml Candida tropicalis isolate 5 in RPMI 1640 medium after 24 hrs by broth microdilution method; type: functional; settings: isolate 5, 24 h
Candida tropicalis [13] = test: Antifungal activity against 2 x 10^7 CFU/ml Candida tropicalis isolate 3 in RPMI 1640 medium after 24 hrs by broth microdilution method; type: functional; settings: isolate 3, 24 h
Candida tropicalis [14] = test: Antifungal activity against 2 x 10^7 CFU/ml Candida tropicalis isolate 1 in RPMI 1640 medium after 24 hrs by broth microdilution method; type: functional; settings: isolate 1, 24 h
Candida tropicalis [15] = test: Antifungal activity against 10^5 CFU/ml Candida tropicalis isolate 14 in RPMI 1640 medium at =< 0.09 ug/ml after 24 hrs followed by incubation in drug free medium for 48 hrs by broth microdilution method; type: functional, organism-based
Candida tropicalis [16] = test: Antifungal activity against 10^5 CFU/ml Candida tropicalis isolate 3 in RPMI 1640 medium at 12.5 ug/ml treated for 48 hrs followed by incubation in drug free medium for 48 hrs by broth microdilution method; type: functional, organism-based
Candida tropicalis [17] = test: Antifungal activity against 10^5 CFU/ml Candida tropicalis isolate 7 in RPMI 1640 medium at 12.5 ug/ml treated for 48 hrs followed by incubation in drug free medium for 48 hrs by broth microdilution method; type: functional, organism-based
Candida tropicalis [18] = test: Antifungal activity against 10^5 CFU/ml Candida tropicalis isolate 14 in RPMI 1640 medium at 12.5 ug/ml treated for 48 hrs followed by incubation in drug free medium for 48 hrs by broth microdilution method; type: functional, organism-based
Candida tropicalis [19] = test: Antifungal activity against 10^5 CFU/ml Candida tropicalis isolate 15 in RPMI 1640 medium at 12.5 ug/ml treated for 48 hrs followed by incubation in drug free medium for 48 hrs by broth microdilution method; type: functional, organism-based
Candida tropicalis [20] = test: Antifungal activity against Candida tropicalis isolate 7 in RPMI 1640 medium assessed as paradoxical growth at 6.25 ug/ml after 48 hrs by broth microdilution method; type: functional, organism-based
Candida tropicalis [21] = test: Antifungal activity against Candida tropicalis isolate 4 in RPMI 1640 medium assessed as paradoxical growth at 12.5 ug/ml after 24 hrs by broth microdilution method; type: functional, organism-based
Candida tropicalis [22] = test: Antifungal activity against Candida tropicalis isolate 5 in RPMI 1640 medium assessed as paradoxical growth at 12.5 ug/ml after 24 hrs by broth microdilution method; type: functional, organism-based
Candida tropicalis [23] = test: Antifungal activity against Candida tropicalis ATCC 750 in RPMI 1640 medium assessed as paradoxical growth at 12.5 ug/ml after 24 hrs by broth microdilution method; type: functional, organism-based
Candida tropicalis [24] = test: Antifungal activity against 10^5 CFU/ml Candida tropicalis clinical isolate in antibiotic medium 3 treated for 24 hrs followed by incubation in drug free medium for 48 hrs by broth microdilution method; type: functional, organism-based
Candida tropicalis [25] = test: Antifungal activity against Candida tropicalis clinical isolate in antibiotic medium 3 assessed as paradoxical growth-related change in CFU treated for 24 hrs by time-kill assay; type: functional
Candida tropicalis [26] = test: Fungistatic activity against Candida tropicalis clinical isolates at 12.5 ug/ml after 24 to 48 hrs by time-kill assay; type: functional, organism-based
Candida tropicalis [27] = test: Antifungal activity against 10^5 CFU/ml Candida tropicalis ATCC 750 in RPMI 1640 medium at 0.4 to 12.5 ug/ml treated for 48 hrs followed by incubation in drug free medium for 48 hrs by broth microdilution method; type: functional, organism-based
Candida tropicalis [28] = test: Antifungal activity against 10^5 CFU/ml Candida tropicalis isolate 4 in RPMI 1640 medium at 0.4 to 12.5 ug/ml treated for 48 hrs followed by incubation in drug free medium for 48 hrs by broth microdilution method; type: functional, organism-based
Candida tropicalis [29] = test: Antifungal activity Candida tropicalis isolate 4 in RPMI 1640 medium at 12.5 ug/ml after 24 hrs by time-kill assay; type: functional, organism-based
Candida tropicalis [30] = test: Antifungal activity against Candida tropicalis isolate 14 in RPMI 1640 medium assessed as paradoxical growth at 12.5 ug/ml after 24 hrs by broth microdilution method; type: functional, organism-based
Candida tropicalis [31] = test: Antifungal activity against 10^5 CFU/ml Candida tropicalis isolate 6 in antibiotic medium 3 at 6.25 ug/ml treated for 24 hrs followed by incubation in drug free medium for 48 hrs by broth microdilution method; type: functional, organism-based
Candida tropicalis [32] = test: Antifungal activity against 10^5 CFU/ml Candida tropicalis isolate 10 in RPMI 1640 medium at 12.5 ug/ml treated for 24 hrs followed by incubation in drug free medium for 48 hrs by broth microdilution method; type: functional, organism-based
Candida tropicalis [33] = test: Antifungal activity against 10^5 CFU/ml Candida tropicalis isolate 9 in RPMI 1640 medium at 12.5 ug/ml treated for 24 hrs followed by incubation in drug free medium for 48 hrs by broth microdilution method; type: functional, organism-based
Candida tropicalis [34] = test: Antifungal activity against 10^5 CFU/ml Candida tropicalis isolate 8 in RPMI 1640 medium at 12.5 ug/ml treated for 24 hrs followed by incubation in drug free medium for 48 hrs by broth microdilution method; type: functional, organism-based
Candida tropicalis [35] = test: Antifungal activity against 10^5 CFU/ml Candida tropicalis isolate 1 in RPMI 1640 medium at 12.5 ug/ml treated for 24 hrs followed by incubation in drug free medium for 48 hrs by broth microdilution method; type: functional, organism-based

MIC (Candida tropicalis [3]): 0.024 µg/mL (≈ 0.022 µM) | MIC (Candida tropicalis [4]): 0.024 µg/mL (≈ 0.022 µM) | MIC (Candida tropicalis [5]): 0.024 µg/mL (≈ 0.022 µM) | MIC (Candida tropicalis [6]): 0.024 µg/mL (≈ 0.022 µM) | MIC (Candida tropicalis [7]): 0.024 µg/mL (≈ 0.022 µM) | MIC (Candida tropicalis [8]): 0.024 µg/mL (≈ 0.022 µM) | MIC (Candida tropicalis [9]): 0.024 µg/mL (≈ 0.022 µM) | MIC (Candida tropicalis [10]): 0.024 µg/mL (≈ 0.022 µM) | MIC (Candida tropicalis [11]): 0.024 µg/mL (≈ 0.022 µM) | MIC (Candida tropicalis [12]): 0.024 µg/mL (≈ 0.022 µM) | MIC (Candida tropicalis [13]): 0.024 µg/mL (≈ 0.022 µM) | MIC (Candida tropicalis [14]): 0.024 µg/mL (≈ 0.022 µM)
SMILES: CC[C@H](C)C[C@H](C)CCCCCCCCC(=O)N[C@H]1C[C@@H](O)[C@@H](NCCN)NC(=O)[C@@H]2[C@@H](O)CCN2C(=O)[C@H]([C@H](O)CCN)NC(=O)[C@H]([C@H](O)[C@@H](O)c2ccc(O)cc2)NC(=O)[C@@H]2C[C@@H](O)CN2C(=O)[C@H]([C@@H](C)O)NC1=O [CASPOFUNGIN]
Activity (Candida tropicalis [1]): inactive | Activity (Candida tropicalis [2]): inactive | Activity (Candida tropicalis [15]): Active | Activity (Candida tropicalis [16]): inactive | Activity (Candida tropicalis [17]): Active | Activity (Candida tropicalis [18]): inactive | Activity (Candida tropicalis [19]): inactive | Activity (Candida tropicalis [20]): Active | Activity (Candida tropicalis [21]): inactive | Activity (Candida tropicalis [22]): inactive | Activity (Candida tropicalis [23]): inactive | Activity (Candida tropicalis [24]): Active | Activity (Candida tropicalis [25]): 0.36 log10CFU/ml | Activity (Candida tropicalis [26]): Active | Activity (Candida tropicalis [27]): inactive | Activity (Candida tropicalis [28]): inactive | Activity (Candida tropicalis [29]): inactive | Activity (Candida tropicalis [30]): inactive | Activity (Candida tropicalis [31]): inactive | Activity (Candida tropicalis [32]): inactive | Activity (Candida tropicalis [33]): inactive | Activity (Candida tropicalis [34]): inactive | Activity (Candida tropicalis [35]): inactive
